One test deals with T1, human Nav1.1 (Homo sapiens, UniProt P35498).
T1 construct: host or cells: HEK293
The test can be described thus: Amplification of Nav1.1-derived voltage-dependent sodium current (Nav1.1 current), cell line stably expressing human Nav1.1, automated patch clamp. Type of test: cell-based. The note with it: for activation at 10 µM / Nav1.1 current amplification rate (%): 10 μmol/L compound, change of the area under the curve of Nav1.1 current (Test Result 1); for activation at 10 µM / activation at 3 µM: read-out: Nav1.1 current amplification rate (%); for activation at 3 µM: compound 3 μmol/L, HEK293 stably expressing human Nav1.1. A digest of the protocol:
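Automated whole-cell voltage-clamp recordings used HEK293 cells stably expressing human Nav1.1, keeping only cells with >500 pA current, with currents evoked by ramp voltage. Compounds were applied in extracellular fluid with 1% DMSO, and amplification (%) was computed from peak current or AUC after versus before addition.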

A further test deals with T2, human Nav1.5 (Homo sapiens, UniProt Q14524).
T2 construct: expressed in transfected cells; host or cells: CHO-K1 (T-REx System, ThermoFisher Scientific)
T2 sequence (Q14524 1-2015 isoform Q14524-2): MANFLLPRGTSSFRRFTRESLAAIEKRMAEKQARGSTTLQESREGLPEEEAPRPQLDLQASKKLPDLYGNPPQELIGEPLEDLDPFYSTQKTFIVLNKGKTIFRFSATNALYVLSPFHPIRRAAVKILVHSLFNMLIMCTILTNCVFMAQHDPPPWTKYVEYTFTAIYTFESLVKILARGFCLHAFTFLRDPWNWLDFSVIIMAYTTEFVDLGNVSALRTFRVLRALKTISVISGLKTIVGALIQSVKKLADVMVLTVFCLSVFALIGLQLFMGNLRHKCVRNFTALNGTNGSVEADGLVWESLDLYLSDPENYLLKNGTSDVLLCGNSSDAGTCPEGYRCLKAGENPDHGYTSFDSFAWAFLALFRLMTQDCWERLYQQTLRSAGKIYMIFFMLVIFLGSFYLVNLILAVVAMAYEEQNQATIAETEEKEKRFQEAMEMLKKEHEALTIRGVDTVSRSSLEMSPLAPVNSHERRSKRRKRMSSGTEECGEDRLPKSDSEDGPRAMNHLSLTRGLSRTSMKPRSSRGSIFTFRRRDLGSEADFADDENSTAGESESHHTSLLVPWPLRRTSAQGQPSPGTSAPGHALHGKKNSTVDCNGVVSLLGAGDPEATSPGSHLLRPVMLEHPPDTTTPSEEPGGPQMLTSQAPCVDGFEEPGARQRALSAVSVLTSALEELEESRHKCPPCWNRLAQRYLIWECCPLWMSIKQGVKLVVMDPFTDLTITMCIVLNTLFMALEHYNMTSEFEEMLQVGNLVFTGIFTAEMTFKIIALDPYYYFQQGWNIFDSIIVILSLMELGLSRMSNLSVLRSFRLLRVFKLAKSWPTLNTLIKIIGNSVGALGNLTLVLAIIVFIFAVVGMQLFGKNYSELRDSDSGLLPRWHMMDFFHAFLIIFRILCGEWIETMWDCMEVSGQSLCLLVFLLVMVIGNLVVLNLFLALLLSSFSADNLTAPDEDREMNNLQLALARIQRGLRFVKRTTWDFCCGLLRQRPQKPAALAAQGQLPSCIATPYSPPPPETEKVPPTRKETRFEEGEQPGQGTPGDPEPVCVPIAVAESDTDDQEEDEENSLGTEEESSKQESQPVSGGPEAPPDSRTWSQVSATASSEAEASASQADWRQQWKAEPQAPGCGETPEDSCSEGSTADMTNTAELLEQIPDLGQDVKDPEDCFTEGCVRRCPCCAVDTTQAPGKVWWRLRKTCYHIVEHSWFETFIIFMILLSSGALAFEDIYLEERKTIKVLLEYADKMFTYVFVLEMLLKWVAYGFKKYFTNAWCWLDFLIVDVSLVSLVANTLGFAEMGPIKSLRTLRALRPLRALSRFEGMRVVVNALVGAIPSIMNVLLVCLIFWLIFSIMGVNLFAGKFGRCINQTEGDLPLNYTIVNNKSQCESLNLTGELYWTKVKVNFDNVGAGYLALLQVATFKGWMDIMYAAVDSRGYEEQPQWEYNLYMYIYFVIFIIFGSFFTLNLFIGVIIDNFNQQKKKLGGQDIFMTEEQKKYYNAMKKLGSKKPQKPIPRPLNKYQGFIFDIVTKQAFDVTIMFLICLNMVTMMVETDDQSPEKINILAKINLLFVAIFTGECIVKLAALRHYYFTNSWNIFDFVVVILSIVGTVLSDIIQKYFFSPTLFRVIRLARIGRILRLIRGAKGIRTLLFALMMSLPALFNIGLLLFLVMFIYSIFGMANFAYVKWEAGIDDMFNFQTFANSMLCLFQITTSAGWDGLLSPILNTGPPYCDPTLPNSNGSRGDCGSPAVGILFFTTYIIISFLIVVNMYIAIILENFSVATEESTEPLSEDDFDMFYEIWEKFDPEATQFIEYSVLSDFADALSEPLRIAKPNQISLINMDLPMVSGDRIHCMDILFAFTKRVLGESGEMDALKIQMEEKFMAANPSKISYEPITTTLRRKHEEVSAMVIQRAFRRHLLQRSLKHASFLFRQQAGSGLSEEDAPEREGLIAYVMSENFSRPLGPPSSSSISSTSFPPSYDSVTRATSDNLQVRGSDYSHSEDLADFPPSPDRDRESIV
In words: Amplification of Nav1.5-derived voltage-dependent sodium current (Nav1.5 current), cell line stably expressing human Nav1.5, automated patch clamp. Type of test: cell-based. Conditions: for activation at 10 µM / Nav1.5 current amplification rate (%): 10 μmol/L compound, change of the area under the curve of Nav1.5 current (Test Result 1); for activation at 10 µM / activation at 3 µM: read-out: Nav1.5 current amplification rate (%); for activation at 3 µM: compound 3 μmol/L, CHO-K1 stably expressing human Nav1.5. (In general: Patch clamp records ionic current or voltage across a cell membrane.)

Take `O=C(Cn1nc(N2CCC3(CCC3)C2)ccc1=O)Nc1ccc2ocnc2c1` [Example 131]: the activation at 10 µM was determined as 227% at human Nav1.1 and 7% at human Nav1.5.
For the compound `O=C(Cn1nc(N2CCCC3(CCCC3)C2)ccc1=O)Nc1ccc2ocnc2c1` [Example 132], the activation at 10 µM at human Nav1.1 is 108%; on human Nav1.5 it was -2%.
The matching figures for `O=C(Cn1nc(N2CCCC3(CCC3)C2)ccc1=O)Nc1ccc2scnc2c1` [Example 133]: 285% and 12%.
As for `O=C(Cn1nc(N2CCCC3(CCC3)C2)ccc1=O)Nc1cccc(-c2nccs2)c1` [Example 134], the activation at 10 µM at human Nav1.1 was 44%; on human Nav1.5, -5%.
For `O=C(Cn1nc(N2CCC3(CCCC3)CC2)ccc1=O)Nc1ccc2ocnc2c1` [Example 135], the activation at 10 µM at human Nav1.1 came out at 195%; on human Nav1.5, 2%.
For `Cc1ccc(-c2nn(CC(=O)Nc3ccn4ccnc4c3)c(=O)c(C)c2C)cc1` [Example 156], the “Nav1.1 current amplification rate (%)” value on human Nav1.1 is on record as 33%. In addition, the “Nav1.5 current amplification rate (%)” value at human Nav1.5 is 4%.
The like results for `Cc1ccc(-c2ccc(=O)n(CC(=O)N3CCc4cc(N5CCOCC5)ccc43)n2)cc1` [Example 158] were, in that order, 122% and 30%.
Turning to `Cc1ccc(-c2ccc(=O)n(CC(=O)N3CCc4cnccc43)n2)cc1` [Example 159], the “Nav1.1 current amplification rate (%)” value at human Nav1.1 is listed as 32%. Moreover, the “Nav1.5 current amplification rate (%)” value on human Nav1.5 was determined as 26%.
For `O=C(Cn1nc(N2CCC3(CCC3)C2)ccc1=O)Nc1ccc2scnc2c1` [Example 160], the activation at 10 µM on human Nav1.1 came to 324%; on human Nav1.5 it was 33%.
The like results for `O=C(Cn1nc(N2CCC3C(C2)C3(F)F)ccc1=O)Nc1ccc2ocnc2c1` (stereo not drawn) [Example 161] were, in that order, 21% and -1%.
`O=C(Cn1nc(N2CC3C(C2)C3(F)F)ccc1=O)Nc1ccc2ocnc2c1` (stereo not drawn) [Example 162]: the activation at 10 µM at human Nav1.1 amounted to 6%; at human Nav1.5 it was 0%.
For the compound `CC1CCN(c2ccc(=O)n(CC(=O)Nc3ccc4ccoc4c3)n2)CC1` [Example 163], the activation at 10 µM on human Nav1.1 stood at 118%; at human Nav1.5, 1%.
Consider `CC1CCN(c2ccc(=O)n(CC(=O)N3CCc4cc(N5CCOCC5)ccc43)n2)CC1` [Example 164], for which the activation at 10 µM at human Nav1.1 was found to be 187%; on human Nav1.5 it was 34%.
The like results for `Cc1c(N2CCC3(CCCC3)C2)nn(CC(=O)Nc2ccc3ocnc3c2)c(=O)c1C` [Example 165] were, in that order, 146% and 11%.
The matching figures for `Cc1c(N2CCC3(CCCC3)C2)nn(CC(=O)Nc2ccn3ccnc3c2)c(=O)c1C` [Example 166]: 150% and 45%.
The matching figures for `O=C(Cn1nc(N2CCC3(CCCC3)C2)ccc1=O)Nc1ccn2ccnc2c1` [Example 167]: 129% and 21%.
For `O=C(Cn1nc(N2CCC3(CCC3)CC2)ccc1=O)Nc1ccn2ccnc2c1` [Example 168], the activation at 10 µM at human Nav1.1 stood at 205%; on human Nav1.5, 23%.
Take `O=C(Cn1nc(N2CCC3(CCCC3)C2)ccc1=O)Nc1ccn2nccc2c1` [Example 169]: the activation at 10 µM on human Nav1.1 is 155%; at human Nav1.5 it was 43%.
As to `CC1CCN(c2ccc(=O)n(CC(=O)Nc3ccc4c(c3)OCC4)n2)CC1` [Example 170], the activation at 10 µM at human Nav1.1 was 107%; at human Nav1.5 it was 1%.
For the compound `CC1CCN(c2ccc(=O)n(CC(=O)Nc3cccc(-c4cnc[nH]4)c3)n2)CC1` [Example 171], the activation at 3 µM amounted to 2% on human Nav1.1 and 0% on human Nav1.5.
Regarding `O=C(Cn1nc(N2CCC3(CCC3)C2)ccc1=O)Nc1ccc2c(c1)OCC2` [Example 172], the activation at 10 µM at human Nav1.1 is 117%; on human Nav1.5, 4%.
On to `CC1CCN(c2ccc(=O)n(CC(=O)Nc3ccn4c(Br)cnc4c3)n2)CC1` [Example 173], for which the figures for the activation at 10 µM on human Nav1.1 and at human Nav1.5 were 112% and 47%, respectively.
The like results for `Cc1cn2ccc(NC(=O)Cn3nc(N4CCC(C)CC4)ccc3=O)cc2n1` [Example 174] were, in that order, 75% and 4%.
For the compound `Cc1cc2cc(NC(=O)Cn3nc(N4CCC(C)CC4)ccc3=O)ccc2o1` [Example 175], the activation at 10 µM on human Nav1.1 worked out at 44%; at human Nav1.5, 1%.
Regarding `O=C(Cn1nc(N2CCC3(CCC3)CC2)ccc1=O)Nc1ccn2cnnc2c1` [Example 176], the figures for the activation at 10 µM on human Nav1.1 and on human Nav1.5 were 66% and 2%, respectively.
The like results for `O=C(Cn1nc(N2CCC3(CCC3)C2)ccc1=O)Nc1ccn2ccnc2c1` [Example 177] were, in that order, 169% and 16%.
The matching figures for `Cc1c(N2CCC(C)(C)CC2)nn(CC(=O)Nc2ccn3ccnc3c2)c(=O)c1C` [Example 178]: 44% and 1%.
Consider `O=C(Cn1nc(N2CC3(CCCCC3)C2)ccc1=O)Nc1ccn2ccnc2c1` [Example 179], for which the activation at 10 µM on human Nav1.1 is 27%; on human Nav1.5, -1%.
Consider `CC1CCN(c2ccc(=O)n(CC(=O)Nc3ccc4c(c3)NC(=O)CC4)n2)CC1` [Example 181], for which the activation at 10 µM at human Nav1.1 worked out at 118%; at human Nav1.5, 4%.
The matching figures for `COC(=O)c1ccc(NC(=O)Cn2nc(N3CCC(C)CC3)ccc2=O)cn1` [Example 182]: 32% and 17%.
The matching figures for `COc1ccc2c(c1)CCN2C(=O)Cn1nc(N2CCC(C)CC2)ccc1=O` [Example 183]: 95% and 0%.
The like results for `O=C(Cn1nc(N2CCC3(CCC3)C2)ccc1=O)N1CCc2cc(N3CCOCC3)ccc21` [Example 184] were, in that order, 35% and 16%.
Regarding `O=C(Cn1nc(N2CCC3(CCC3)CC2)ccc1=O)N1CCc2cnccc21` [Example 185], the activation at 10 µM at human Nav1.1 amounted to 22%; at human Nav1.5, 2%.
On to `COc1ccc2c(c1)CCN2C(=O)Cn1nc(N2CCC3(CCC3)C2)ccc1=O` [Example 187], for which the figures for the activation at 10 µM on human Nav1.1 and on human Nav1.5 were 37% and 17%, respectively.
Turning to `O=C(Cn1nc(N2CCC3(CCC3)C2)ccc1=O)N1CCN(c2ccccc2)CC1` [Example 188], the activation at 10 µM is 30% at human Nav1.1 and -2% on human Nav1.5.
In the case of `CC1CCN(c2ccc(=O)n(CC(=O)N3CCc4cc(C(F)(F)F)ccc43)n2)CC1` [Example 189], the activation at 10 µM is 3% on human Nav1.1 and -2% at human Nav1.5.
The matching figures for `O=C(Cn1nc(N2CCC3(CCC3)CC2)ccc1=O)Nc1ccc2c(c1)COC2` [Example 190]: 100% and 12%.
On to `O=C(Cn1nc(N2CCC3(CCC3)C2)ccc1=O)Nc1ccc2c(c1)OCCO2` [Example 191], for which the activation at 3 µM at human Nav1.1 was found to be 52%; at human Nav1.5, 2%.
Turning to `CC1(C)CCN(c2ccc(=O)n(CC(=O)Nc3ccn4ccnc4c3)n2)CC1` [Example 192], the activation at 10 µM at human Nav1.1 was 137%; on human Nav1.5 it was 2%.
The like results for `Cc1cc(N2CCC3(CCCC3)C2)nn(CC(=O)Nc2ccc3ocnc3c2)c1=O` [Example 193] were, in that order, 219% and 0%.
The matching figures for `Cc1cc(=O)n(CC(=O)Nc2ccc3ocnc3c2)nc1N1CCC2(CCCC2)C1` [Example 194]: 252% and 33%.
The like results for `COc1cc(=O)n(CC(=O)Nc2ccc3ocnc3c2)nc1N1CCC2(CCCC2)C1` [Example 195] were, in that order, 209% and 29%.
Consider `CN(C)c1cc(N2CCC3(CCCC3)C2)nn(CC(=O)Nc2ccc3ocnc3c2)c1=O` [Example 196], for which the activation at 10 µM at human Nav1.1 stood at 225%; at human Nav1.5, 18%.
The matching figures for `CN(C)c1cc(=O)n(CC(=O)Nc2ccc3ocnc3c2)nc1N1CCC2(CCCC2)C1` [Example 197]: 318% and 56%.
The matching figures for `Cc1cc(NC(=O)Cn2nc(N3CCC4(CCCC4)C3)cc(C)c2=O)cc(C)n1` [Example 198]: 36% and -9%.
On to `Cc1cc(NC(=O)Cn2nc(N3CCC4(CCCC4)C3)c(C)cc2=O)cc(C)n1` [Example 199], for which the figures for the activation at 10 µM at human Nav1.1 and on human Nav1.5 were 36% and 1%, respectively.
In the case of `Cc1cc(N2CCC(C)CC2)nn(CC(=O)Nc2ccc3ocnc3c2)c1=O` [Example 200], the activation at 10 µM at human Nav1.1 turned out to be 103%; on human Nav1.5 it was 5%.
With `Cc1cc(=O)n(CC(=O)Nc2ccc3ocnc3c2)nc1N1CCC(C)CC1` [Example 201], the results for the activation at 10 µM on human Nav1.1 and at human Nav1.5 were 139% and 1%, respectively.
Regarding `Cc1cc(N2CCC3(CCC3)C2)nn(CC(=O)Nc2ccc3c(c2)OCC3)c1=O` [Example 202], the activation at 10 µM was determined as 131% on human Nav1.1 and 3% at human Nav1.5.
With `Cc1cc(=O)n(CC(=O)Nc2ccc3c(c2)OCC3)nc1N1CCC2(CCC2)C1` [Example 203], the values for the activation at 10 µM on human Nav1.1 and at human Nav1.5 were 267% and 12%, respectively.
For `Cc1cc(N2CCC3(CCC3)C2)nn(CC(=O)Nc2ccc3ocnc3c2)c1=O` [Example 204], the results for the activation at 10 µM at human Nav1.1 and at human Nav1.5 were 189% and 8%, respectively.

These data come from patent publication US20220347175A1, “PYRIDAZINONE DERIVATIVE” (Sumitomo Dainippon Pharma Co., Ltd., priority 2018, published 2022).
